Assay results as given in ChEMBL document CHEMBL1201862, “PubChem BioAssay data set” (2004).
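Step 1: Grow cells in 96-well plates. Step 2: Expose to compound for 48 hours at 5 concentrations. Step 3: Interpolate endpoints linearly; if unreached, use highest concentration. Here, GI50 denotes the concentration required for 50% inhibition of growth.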 Active and inactive are the calls of the source. Cut-off read from the data, not from the text of the source: active = GI50 up to about 1.1 µM and inactive = higher.

Legend:
Assay in all cases: inhibition of tumour cell growth, NCI panel, 48 h
[1] = system: HT-29
[2] = system: RXF 393
[3] = system: U-251
[4] = system: HOP-92
[5] = system: OVCAR-4
[6] = system: UACC-62
[7] = system: NCI-H226
[8] = system: CAKI-1
[9] = system: SF-539
[10] = system: IGROV-1
[11] = system: OVCAR-5
[12] = system: SK-MEL-2
[13] = system: SNB-75
[14] = system: 786-0
[15] = system: MOLT-4
[16] = system: SK-MEL-5
[17] = system: EKVX
[18] = system: LOX IMVI
[19] = system: CCRF-CEM

Row | SMILES | GI50 [1] | GI50 [2] | GI50 [3] | GI50 [4] | GI50 [5] | GI50 [6] | GI50 [7] | GI50 [8] | GI50 [9] | GI50 [10] | GI50 [11] | GI50 [12] | GI50 [13] | GI50 [14] | GI50 [15] | GI50 [16] | GI50 [17] | GI50 [18] | GI50 [19]
1 | COc1cccc2c1C1=CC(=O)CCC1C(C)(C)O2 (stereo not drawn) | > 100 µM (inactive) | 6.03 µM (inactive) | 45.3 µM (inactive) | > 100 µM (inactive) | > 100 µM (inactive) | > 100 µM (inactive) | > 100 µM (inactive) | > 100 µM (inactive) | > 100 µM (inactive) | > 100 µM (inactive) | > 100 µM (inactive) | > 100 µM (inactive) | > 100 µM (inactive) | > 100 µM (inactive) | > 100 µM (inactive) | > 100 µM (inactive) | > 100 µM (inactive) | 35.7 µM (inactive) | 56.4 µM (inactive)
2 | C[N+](C)(C)CCc1ccccc1 | > 100 µM (inactive) | > 100 µM (inactive) | > 100 µM (inactive) | > 100 µM (inactive) | > 100 µM (inactive) | > 100 µM (inactive) | > 100 µM (inactive) | > 100 µM (inactive) | > 100 µM (inactive) | > 100 µM (inactive) | > 100 µM (inactive) | > 100 µM (inactive) | > 100 µM (inactive) | > 100 µM (inactive) | > 100 µM (inactive) | > 100 µM (inactive) | > 100 µM (inactive) | > 100 µM (inactive) | > 100 µM (inactive)
3 | O=C(CC(=O)n1nc(-c2ccccc2)c(/N=N/c2ccc([N+](=O)[O-])cc2)c1-c1ccccc1)Nc1ccc(Cl)cc1 | 12.5 µM (inactive) | 19.5 µM (inactive) | 18.9 µM (inactive) | 16.8 µM (inactive) | 34.2 µM (inactive) | 2.56 µM (inactive) | 22.4 µM (inactive) | 20 µM (inactive) | 21.5 µM (inactive) | 36.4 µM (inactive) | 26.5 µM (inactive) | 34.8 µM (inactive) | 29 µM (inactive) | 34.8 µM (inactive) | 24.1 µM (inactive) | 3.23 µM (inactive) | 26.7 µM (inactive) | 30.2 µM (inactive) | 15.6 µM (inactive)
4 | O=C(Cc1ccc(F)cc1)NC1=C(Cl)C(=O)c2ccccc2C1=O | 17.3 µM (inactive) | 1.05 µM (active) | 3.07 µM (inactive) | 1.69 µM (inactive) | 2.06 µM (inactive) | 2.53 µM (inactive) | 3.4 µM (inactive) | 4.95 µM (inactive) | 2.24 µM (inactive) | 2.61 µM (inactive) | 3.85 µM (inactive) | 2.43 µM (inactive) | 2.5 µM (inactive) | 6.58 µM (inactive) | 1.79 µM (inactive) | 2.92 µM (inactive) | 3.65 µM (inactive) | 2.95 µM (inactive) | 1.71 µM (inactive)
5 | COC(=O)C1C=CCON2CCc3c(n(S(=O)(=O)c4ccccc4)c4ccccc34)C12 (stereo not drawn) | 43.4 µM (inactive) | > 67.5 µM (inactive) | 25.2 µM (inactive) | > 80.7 µM (inactive) | > 31.6 µM (inactive) | > 49.4 µM (inactive) | > 46.2 µM (inactive) | 57.3 µM (inactive) | > 12.8 µM (inactive) | > 55.3 µM (inactive) | > 100 µM (inactive) | > 100 µM (inactive) | 79.3 µM (inactive) | > 87.1 µM (inactive) | 26.9 µM (inactive) | 34.4 µM (inactive) | 41.5 µM (inactive) | 33.3 µM (inactive) | 32.5 µM (inactive)
6 | Cc1cccc(/N=C/C=C(\Cl)c2ccc3ccccc3c2)c1 | 21.2 µM (inactive) | 15.6 µM (inactive) | 14.8 µM (inactive) | 24.1 µM (inactive) | 11.2 µM (inactive) | 15.1 µM (inactive) | 34.1 µM (inactive) | 17.2 µM (inactive) | 17.8 µM (inactive) | 20.6 µM (inactive) | 27.8 µM (inactive) | 22.9 µM (inactive) | > 39.3 µM (inactive) | 13.9 µM (inactive) | 2.56 µM (inactive) | 17.7 µM (inactive) | 39.5 µM (inactive) | 2.79 µM (inactive) | 4.15 µM (inactive)
7 | Cc1cc(C)c(-n2c(-c3ccccc3)cs/c2=N\N=C2C=C(C(C)(C)C)C(=O)C(C(C)(C)C)=C2)c(C)c1 | > 100 µM (inactive) | > 100 µM (inactive) | > 100 µM (inactive) | 39 µM (inactive) | > 100 µM (inactive) | 60.3 µM (inactive) | > 100 µM (inactive) | > 100 µM (inactive) | > 100 µM (inactive) | > 100 µM (inactive) | > 100 µM (inactive) | > 100 µM (inactive) | 21.3 µM (inactive) | > 100 µM (inactive) | > 100 µM (inactive) | 94 µM (inactive) | 91.4 µM (inactive) | 83.8 µM (inactive) | > 100 µM (inactive)
